The test system of one series is N-cadherin. Briefly: N-cadherin expression in SK-HEP-1 cells (ELISA). The note with it: SK-HEP-1, 10 μM, 24 hours, control group 1.12 ± 0.03. Format: cell-based, human. As for the experimental part:
(§1) SK-HEP-1 cells were cultured in vitro, cells in the logarithmic growth phase were collected, and the cells were seeded evenly in a 24-well plate at a density of 1-3×10^5 cells/well. The cells were cultured in a cell incubator for 4-5 h. PBS was added to the control group. PBS containing polypeptide or derivative thereof (N1-N12) was added to the treatment group. The final concentration of the polypeptide or derivative thereof in the well was 10 μM. After incubating for 24 hours, the cells were collected and the total protein was extracted. ELISA was used to detect the content of fibronectin in total protein.
The experimental method for testing the inhibition on the expression of N-cadherin in human liver adenocarcinoma cells (SK-HEP-1) by the polypeptide or derivative thereof (N1-N12) was as described in Example 19.
On the technique in general: An ELISA detects its analyte on a solid surface through an enzyme-linked reagent.

The next series relates to fibronectin. Briefly: fibronectin expression in SK-HEP-1 cells (ELISA). Format: cell-based, human. Particulars: SK-HEP-1, 10 μM, 24 hours, control group 1.62 ± 0.09. On the procedure: as §1
The next series relates to vimentin. Description: vimentin expression in SK-HEP-1 cells (ELISA). Format: cell-based, human. Particulars: SK-HEP-1, 10 μM, 24 hours, control group 1.2 ± 0.01. As for the experimental part:
as §1
The experimental method for testing the inhibition on the expression of vimentin in human liver adenocarcinoma cells (SK-HEP-1) by the polypeptide or derivative thereof (N1-N12) was as described in Example 19.

Series [1] relates to human lung cancer cells (A549) subcutaneous xenograft. Briefly: lung cancer subcutaneous xenograft animal model, intratumoral injection. Format: in vivo, mice (BALB/c-nu/nu). Particulars: intratumoral 5 mg/kg once every other day, 10 days. As for the experimental part: (§2) Experimental animals: 4-6 weeks old female immunodeficiency mice (BALB/c-nu/nu, Beijing Vital River Laboratory Animal Technology Co., Ltd.).
(§3) Subcutaneous xenograft animal model. The number of cells inoculated subcutaneously vin mice was about 2×10^6/200 μL. When the volume of the subcutaneous tumor was greater than 100 mm^3, the mice were randomly divided into groups and subjected to treatment. When the mass volume of the tumors in model control group reached 2000 mm^3 or the animal dies, the treatment ended. The animals were dissected, the tumors were taken out, and the weight and volume of the tumors were measured. During the period of the entire experiment, the mice were observed and the body weight was measured every other day.
The method used for the drug efficacy test in the animal model of the subcutaneous xenograft derived from lung cancer cells was as described in Example 5. The tumor cells were human lung cancer cells (A549), and the route of administration was intratumoral injection. There were two groups: the model control group and the polypeptide or its derivative treatment group (N1-N12). The drug dosage of the treatment group was 5 mg/kg, once every other day and the treatment time was 10 days.
The procedure of the efficacy test in this example, route and dosage of administration were the same as in Example 9. The peptides used in the experiment were N13-N32. The treatment time was 20 days.

Series [2] in a line: effect on coagulation function in mice (ACT). Format: in vivo, C57BL/6J mice. The note with it: 200 mg/kg tail vein once a day until Day 24, blood on Day 25; control group 73.50 ± 7.15. As for the experimental part: C57BL/6J mice were used as experimental subjects (purchased from Chengdu Dashuo Experimental Animal Co., Ltd., male, weighing 16-17 g). Sterile saline or peptide drugs were injected via the tail vein once a day until Day 24. The mice in the control group were injected with sterile saline, and the mice in the administration groups (N1-N12) were injected with polypeptide drugs (200 mg/kg). There were three experimental animals in each group. On Day 25, the eyeballs were removed and blood ([…]) was taken. The coagulation function of the mice was detected by the Abbott i-STAT blood gas analyzer with the ACT test card.

For series [3], the system named is human pancreatic cancer cells (PANC-1) subcutaneous xenograft. Description: pancreatic cancer subcutaneous xenograft animal model, intratumoral injection. Format: in vivo, mice (BALB/c-nu/nu). The note with it: PANC-1 xenograft, intratumoral 5 mg/kg once every other day, 25 days. As for the experimental part:
as §2, §3
The method used in the efficacy test on the pancreatic cancer subcutaneous xenograft animal model was as described in Example 5. The pancreatic cancer cells were human pancreatic cancer cells (PANC-1), and the route of administration was intratumoral injection. The experimental groups were model control group and polypeptide or derivative thereof treatment groups (N1-N12). The drug dosage of the N1-N12 treatment group was 5mg/kg, once every other day, and the treatment time was 25 days.

As for “N12: SEQ ID NO: 1 with deletion of position 18 and positions 1-2 (VRFLAKENVTQDAED)”, the “Relative protein level (mean ± SD, P), N-cadherin” value in the series with N-cadherin is listed as 0.58 ± 0.03,***. Further, the “Relative protein level (mean ± SD, P), fibronectin” value with fibronectin is recorded as 1.23 ± 0.07,**. Also, the “Relative protein level (mean ± SD, P), vimentin” value in the series on vimentin is given as 0.71 ± 0.03, ****. In addition, the “Weight of tumor (g) (mean ± SD)” value in series [1] (control 1.45 ± 0.15) worked out at 0.73 ± 0.09 g; in series [3] (control 1.2 ± 0.11), 0.71 ± 0.09 g. In addition, the “Volume of tumor (mm^3) (mean ± SD)” value in series [1] (control 1269.32 ± 115.39) is recorded as 726.15 ± 144.96 mm^3; in series [3] (control 1431.72 ± 174.33), 863.2 ± 129.61 mm^3. The “Activated clotting time (s) (mean ± SD)” value in series [2] is recorded as 75.55 ± 7.61 s.

For the origin of these results see patent US20220280594A1, “APPLICATION OF POLYPEPTIDE OR DERIVATIVE THEREOF” (CHENGDU HUITAI BIOMEDICINE CO., LTD., priority 2019, published 2022).
